Source: patent publication US20140274782A1, “AFFINITY REAGENTS AND METHODS FOR DETECTION, PURIFICATION, AND PROTEOMIC ANALYSIS OF METHYLATED PROTEINS” (The Board of Trustees of the Leland Stanford Junior …, priority 2013, published 2014)

Legend:
[1] = test system: 3×MBT domain of L3MBTL1; test: SILAC proteomic pull-down 3×MBT vs 3×MBTD355N from 293T nuclear extract, LC-MS/MS; assay type: binding, human; details: for Protein Ratio 3xMBT/D355N: SILAC ratio, 293T nuclear extract pull-down, * = protein identified in only one labeling experiment
Protocol: Protein pull-downs were performed as described above using 600 μg of nuclear extract prepared with isotopic labels as indicated. After eluting with glutathione, 3×MBT domain was removed by dialysis into high salt and rebinding to GSH-sepharose. Bound proteins were separated by SDS-PAGE and analyzed by in-gel tryptic digest followed by LC-MS/MS. Peptides were identified using MaxQuant version 1.2.2.5 (Cox and Mann (2008) Nat. Biotechnol. 26, 1367-1372) and candidate methylated peptides were verified by manual inspection.
For stable isotope labeling by amino acids in cell culture (SILAC) experiments HEK 293T cells were grown for at least six doublings in DMEM for SILAC supplemented with 10% dialyzed fetal bovine serum (FBS), 230 mg/L L-proline and either 100 mg/L each of L-lysine and L-arginine (“light” medium), D4-L-lysine and ^13C6-L-arginine (“medium” media), or ^13C6^15N2-L-lysine and ^13C6^15N4-L-arginine (Thermo Scientific). Heavy methyl labeling used DMEM without L-Methionine or L-Cysteine supplemented with D3^13C-L-Methionine (Sigma), L-Cysteine (Sigma) and 10% dialyzed FBS.
600 μg of nuclear extract was incubated overnight rotating at 4° C. with 20 μl packed 3×MBT or 3×MBTD355N beads in a total volume of 250 μL with binding buffer. Supernatant was removed and saved for use as a loading control. Beads were washed 4×5 minutes with 0.5 mL binding buffer. Protein was eluted by incubating in 20 μL elution buffer (10 mg/mL glutathione in 50 mM Tris pH 8.0) rotating at 4° C. for four hours. Elutions from 3×MBT and 3×MBTD355N were combined and dialyzed overnight at 4° C. against 10,000× volume of dissociation buffer (50 mM Tris pH 7.5, 750 mM NaCl) in a 0.1 mL Slide-A-Lyzer MINI Dialysis Device with 3.5K molecular weight cutoff (Thermo Scientific). 80 μL of GSH-Sepharose was prepared by washing briefly three times with 0.5 mL binding buffer. Dialyzed proteins were added to the GSH-Sepharose and incubated 4 hours rotating at 4° C. to deplete the GST-fusion domains. Supernatant was transferred to a fresh 1.5 mL tube. Proteins were separated by SDS-PAGE on a 10% polyacrylamide gel and stained using SilverQuest Silver Staining Kit (Life Technologies). Lanes were excised, residual 3×MBT band was removed, and gel was diced into 0.5 mm cubes. Gel pieces were destained and processed by in-gel digestion (Carlson et al. (2011) Science Signaling 4) with sequencing grade trypsin (Promega) and the peptide sample was dried completely in a vacuum centrifuge. To prepare a loading control, 2 μL each of light and heavy nuclear extract were combined, 6 μL of 8M urea was added, proteins were denatured by adding 2 μL of 100 mM dithiothreitol in digest buffer (50 mM ammonium bicarbonate) and heating to 60° C. for 1 hour, cysteine was alkylated by adding 2.2 μL 100 mg/mL iodoacetamide in digest buffer and incubating 1 hour at room temperature in darkness, and proteins were digested by adding 80 μL trypsin (Promega) at 12.5 ng/μL in digest buffer and incubating overnight at room temperature in darkness. Digestion was stopped by adding 10 μL of 10% formic acid.
Each experiment consisted of two sets of pull-downs: “forward” labeling with 3×MBT incubated with light nuclear extract and 3×MBTD355N with medium extract, and a second “reverse” labeling experiment with the label conditions swapped. Proteins were included in the results if they were quantified in both labeling directions. To determine reproducibility the entire experiment including the label swap was duplicated using independent protein preparations and a mass spectrometer at another institution.
For 3×MBT pull-down experiment #1 the gel lane was processed and peptides were loaded off-line onto a first dimension trap column (Waters Xbridge, C18, 10 μm particle size, 100 Å pore size, 5 cm packing length, 150 μm column i.d.). […]

[2] = test system: H3K9me2; test: Western blot of 293T whole cell extracts ±UNC0638; assay type: cell-based; details: 293T cells
Protocol: For UNC0638 treatments cells were treated for 24 hours with UNC0638 at 2.5 μM or DMSO vehicle control. One experiment treated cells in light media with UNC0638, the other treated cells in heavy media. Both experiments included cells in medium media treated with DMSO for negative control pull-down with 3×MBTD355N.

[3] = target: T1, G9a and GLP (Homo sapiens, UniProt Q96KQ7+Q9H9B1); test: Triple SILAC pull-down after UNC0638 treatment of 293T cells, DMSO/UNC0638 ratio of protein captured by 3×MBT; assay type: cell-based; details: 293T cells, 2.5 μM, 24 hours;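 also: mass spectrometry (Q-Exactive) SILAC quantitation, DMSO/UNC0638 ratio computed after subtracting 3×MBTD355N mutant pull-down background, only proteins with at least twofold 3×MBT over mutant signal considered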
T1 construct: endogenous in cells; host or cells: HEK 293T
T1 sequence (Q96KQ7 2-1210 limits assumed): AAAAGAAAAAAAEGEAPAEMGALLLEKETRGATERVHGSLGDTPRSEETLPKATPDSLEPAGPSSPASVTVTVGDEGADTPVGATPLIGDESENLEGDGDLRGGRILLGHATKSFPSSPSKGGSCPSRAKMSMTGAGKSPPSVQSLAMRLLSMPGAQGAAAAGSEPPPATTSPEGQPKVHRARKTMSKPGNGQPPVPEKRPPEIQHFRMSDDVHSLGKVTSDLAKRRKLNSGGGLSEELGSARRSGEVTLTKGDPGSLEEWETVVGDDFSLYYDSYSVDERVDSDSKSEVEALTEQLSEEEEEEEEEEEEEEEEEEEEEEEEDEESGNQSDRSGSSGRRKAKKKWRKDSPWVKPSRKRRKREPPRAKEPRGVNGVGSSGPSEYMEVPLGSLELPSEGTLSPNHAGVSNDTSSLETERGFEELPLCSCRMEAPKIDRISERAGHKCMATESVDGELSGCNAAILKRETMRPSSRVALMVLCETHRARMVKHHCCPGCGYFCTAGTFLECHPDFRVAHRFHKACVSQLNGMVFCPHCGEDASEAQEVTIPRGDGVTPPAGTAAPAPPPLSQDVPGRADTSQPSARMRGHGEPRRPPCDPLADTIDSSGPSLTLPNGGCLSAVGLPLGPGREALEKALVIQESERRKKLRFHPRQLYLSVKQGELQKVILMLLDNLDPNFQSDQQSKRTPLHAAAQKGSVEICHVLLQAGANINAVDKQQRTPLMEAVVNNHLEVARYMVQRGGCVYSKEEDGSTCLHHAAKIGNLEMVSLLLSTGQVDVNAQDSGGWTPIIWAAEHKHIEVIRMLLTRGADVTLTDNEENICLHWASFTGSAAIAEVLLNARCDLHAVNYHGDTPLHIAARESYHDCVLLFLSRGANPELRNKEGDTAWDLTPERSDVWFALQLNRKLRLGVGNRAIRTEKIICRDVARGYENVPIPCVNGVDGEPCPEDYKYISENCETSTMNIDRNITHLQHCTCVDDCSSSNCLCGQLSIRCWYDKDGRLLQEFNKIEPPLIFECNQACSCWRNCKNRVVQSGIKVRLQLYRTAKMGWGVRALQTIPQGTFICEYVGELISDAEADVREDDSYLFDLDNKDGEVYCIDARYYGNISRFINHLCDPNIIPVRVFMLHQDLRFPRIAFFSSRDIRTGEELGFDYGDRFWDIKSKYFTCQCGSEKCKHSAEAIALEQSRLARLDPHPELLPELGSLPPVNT
T1 sequence (Q9H9B1 2-1298 limits assumed): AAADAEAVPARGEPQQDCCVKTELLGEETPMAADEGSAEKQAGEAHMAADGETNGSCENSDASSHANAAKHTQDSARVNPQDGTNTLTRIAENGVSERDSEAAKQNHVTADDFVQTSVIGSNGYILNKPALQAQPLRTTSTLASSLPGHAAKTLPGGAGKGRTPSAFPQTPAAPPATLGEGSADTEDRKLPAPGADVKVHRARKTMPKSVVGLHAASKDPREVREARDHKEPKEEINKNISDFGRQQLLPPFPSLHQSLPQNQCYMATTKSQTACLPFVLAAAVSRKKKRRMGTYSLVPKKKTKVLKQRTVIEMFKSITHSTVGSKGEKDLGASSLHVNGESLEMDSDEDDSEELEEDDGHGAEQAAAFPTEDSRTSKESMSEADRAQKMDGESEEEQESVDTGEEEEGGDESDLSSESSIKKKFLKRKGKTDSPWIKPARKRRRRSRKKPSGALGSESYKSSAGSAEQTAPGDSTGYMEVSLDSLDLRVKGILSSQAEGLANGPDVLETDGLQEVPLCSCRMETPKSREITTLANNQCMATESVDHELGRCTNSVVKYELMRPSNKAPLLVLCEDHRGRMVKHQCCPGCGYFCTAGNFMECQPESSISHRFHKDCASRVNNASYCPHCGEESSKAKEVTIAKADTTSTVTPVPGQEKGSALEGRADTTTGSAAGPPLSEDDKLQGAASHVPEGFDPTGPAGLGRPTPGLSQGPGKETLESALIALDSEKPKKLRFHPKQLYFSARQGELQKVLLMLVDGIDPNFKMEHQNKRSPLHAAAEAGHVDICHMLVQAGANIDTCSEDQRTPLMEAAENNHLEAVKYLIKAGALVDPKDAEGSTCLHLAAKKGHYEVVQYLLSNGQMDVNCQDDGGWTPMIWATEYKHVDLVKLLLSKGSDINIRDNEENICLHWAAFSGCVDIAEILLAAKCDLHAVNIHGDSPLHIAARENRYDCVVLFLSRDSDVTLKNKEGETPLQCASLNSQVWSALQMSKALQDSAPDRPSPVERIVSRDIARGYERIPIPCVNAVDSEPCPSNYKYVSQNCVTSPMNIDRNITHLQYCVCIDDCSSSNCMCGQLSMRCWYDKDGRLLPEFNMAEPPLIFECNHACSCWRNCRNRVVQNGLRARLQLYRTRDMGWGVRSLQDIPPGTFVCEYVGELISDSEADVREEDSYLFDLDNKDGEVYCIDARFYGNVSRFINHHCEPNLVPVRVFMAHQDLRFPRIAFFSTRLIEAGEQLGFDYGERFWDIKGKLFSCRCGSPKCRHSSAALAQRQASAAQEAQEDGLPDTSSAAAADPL

“3×MBTD355N: 3×MBT with mutation of aspartate 355 to asparagine; abrogates binding to methyl-lysine; negative control [reference compound]” was tested, and the “number of the 544 identified proteins enriched at 2-fold versus the other domain” value ([1]; SILAC) was 3 and the “percentage of the 544 identified proteins enriched at 2-fold versus the other domain” value ([1]; SILAC) was 0.6%.
`COc1cc2c(NC3CCN(C(C)C)CC3)nc(C3CCCCC3)nc2cc1OCCCN1CCCC1` [UNC0638, reference compound] was tested, and the “levels of the G9a target H3K9me2 in treated cells” value [2] was “reduced” and the “number of candidate G9a/GLP substrates showing reduced association with 3×MBT in response to treatment” value [3] was 23.
In the case of “TUBB2C: protein with methylated lysine identified in 3xMBT pull-down”, the “Protein Ratio 3xMBT/D355N” value [1] is reported as 2.1.
With “hn RNP A/B: protein with methylated lysine identified in 3xMBT pull-down” the “Protein Ratio 3xMBT/D355N” value [1] was 13.4.
In the case of “hnRNP K: protein with methylated lysine identified in 3xMBT pull-down”, the “Protein Ratio 3xMBT/D355N” value [1] is reported as 8.0.
